These are literature values, as cited in patent US20260198548A1, “AEROSOL-GENERATING ARTICLE WITH AN AVERSIVE FLAVOURANT IN A REMOVABLE WRAPPER” (PHILIP MORRIS PRODUCTS S.A., priority 2022, published 2026).

Where a name gives a salt, the structure may show the parent alone.

In the series the test system is test panel members (bitter taste). To be noted: reciprocal of the dilution that still has a bitter taste; quinine hydrochloride reference set at 200,000.
As for `COC1=C[C@@H](C)[C@@H]2C[C@H]3OC(=O)C[C@H]4C(C)=C(OC)C(=O)[C@H]([C@@]2(C)C1=O)[C@@]34C` [Quassin, quassin], the Bitterness value is reported as 13,000,000.
Turning to `C=C[C@H]1C[N@@]2CC[C@H]1C[C@H]2[C@H](O)c1ccnc2ccc(OC)cc12` [Quinine hydrochloride, quinine hydrochloride], the Bitterness value was 200,000.
Turning to `CC1=C[C@H]2[C@H]3[C@H](C(C)=C4[C@H]5OC(=O)[C@@H](C)[C@@H]5CC[C@](C)(O)[C@@H]43)[C@@]13[C@@H]2[C@@](C)(O)CC[C@H]1[C@H](C)C(=O)O[C@@H]13` [Absinthin, absinthin], the Bitterness value is 3,000,000.
amarogentin: the Bitterness value is on record as 58,000,000.
`C[C@@]12C[C@@H](c3ccoc3)OC(=O)[C@@H]1CC[C@]1(C)[C@H]2[C@@H]2C=C[C@@]1(O)C(=O)O2` [Columbin, columbin]: the Bitterness value is 60,000,000.
